Experimental data: patent publication US6784201B2, “Benzothiepines having activity as inhibitors of ileal bile acid transport and taurocholate uptake” (G.D. Searle & Company, priority 1994, dated 2004)

What follows are compounds tested against T1, human IBAT (Homo sapiens, UniProt Q12908) (assay: In vitro assay of IBAT-mediated uptake of [14C]-taurocholate (TC) in H14 cells). Conditions: 50 μM.
T1 construct: expressed in transfected cells; host or cells: Baby hamster kidney (BHK) cells, clone H14
T1 sequence (Q12908 1-348): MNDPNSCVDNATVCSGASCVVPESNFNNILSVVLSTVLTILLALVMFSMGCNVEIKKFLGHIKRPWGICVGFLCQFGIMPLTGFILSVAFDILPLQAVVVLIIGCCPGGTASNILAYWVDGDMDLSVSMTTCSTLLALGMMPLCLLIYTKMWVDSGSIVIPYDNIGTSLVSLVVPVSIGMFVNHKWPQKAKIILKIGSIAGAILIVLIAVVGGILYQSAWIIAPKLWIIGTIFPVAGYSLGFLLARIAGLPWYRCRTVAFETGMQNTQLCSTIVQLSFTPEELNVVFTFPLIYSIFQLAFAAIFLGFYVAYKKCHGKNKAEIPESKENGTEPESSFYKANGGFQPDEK
Format: cell-based
Experimental: In Vitro Assay of Compounds that Inhibit IBAT-Mediated Uptake of [^14C]-Taurocholate (TC) in H14 Cells
Baby hamster kidney cells (BHK) transfected with the cDNA of human IBAT (H14 cells) are seeded at 60,000 cells/well in 96 well Top-Count tissue culture plates for assays run within in 24 hours of seeding, 30,000 cells/well for assays run within 48 hours, and 10,000 cells/well for assays run within 72 hours.
On the day of assay, the cell monolayer is gently washed once with 100 μl assay buffer (Dulbecco's Modified Eagle's medium with 4.5 g/L glucose+0.2% (w/v) fatty acid free bovine serum albumin-(FAF)BSA). To each well 50 μl of a two-fold concentrate of test compound in assay buffer is added along with 50 μl of 6 μM [^14C]-taurocholate in assay buffer (final concentration of 3 μM [^14C]-taurocholate). The cell culture plates are incubated 2 hours at 37° C. prior to gently washing each well twice with 100 μl 4° C. Dulbecco's phosphate-buffered saline (PBS) containing 0.2% (w/v) (FAF)BSA. The wells are then gently washed once with 100 μl 4° C. PBS without (FAF)BSA. To each 200 μl of liquid scintillation counting fluid is added, the plates are heat sealed and shaken for 30 minutes at room temperature prior to measuring the amount of radioactivity in each well on a Packard Top-Count instrument.

Q: For “8b-Phenyl-1a,2,3,8b-tetrahydrospiro(benzothiepino[4,5-b]oxirene-2,1′-cyclohexane)-4,4-dioxide [Example 58]”, which “In vitro % Inhibition of TC Uptake” value is on record?
A: The value was 88%.

Same assay, conditions: 100 uM

Q: For `CCCCC1(CC)CS(=O)(=O)c2ccccc2C(Sc2ccccc2)C1O` (single isomer, unassigned) [Example 21b, 3-Butyl-3-ethyl-4-hydroxy-5-phenylthio-2,3,4,5-tetrahydro-benzothiepine-1,1-dioxide], which “In vitro % Inhibition of TC Uptake @ 100 uM” value is on record?
A: The value was 45%.

Q: With `CCCCC1(CC)CS(=O)(=O)c2ccccc2C(Sc2ccccc2)C1O` (single isomer, unassigned) [Example 21c, 3-Butyl-3-ethyl-4-hydroxy-5-phenylthio-2,3,4,5-tetrahydro-benzothiepine-1,1-dioxide] as the compound, how does the “In vitro % Inhibition of TC Uptake @ 100 uM” value read?
A: The value was 52%.

Same assay, conditions: 100 uM; read-out: In vitro % Inhibition of TC Uptake @ 100 uM

Q: For `CCCC[C@]1(CC)CSc2ccccc2[C@H](c2ccccc2)C1=O` (relative stereo) [Example 4a, cis-3-Butyl-3-ethyl-5-phenyl-2,3-dihydrobenzothiepin-(5H)4-one], which inhibition at 100 µM is on record?
A: Its inhibition at 100 µM is 3%.

Q: How did the inhibition at 100 µM turn out when `CCCC[C@]1(CC)CSc2ccccc2[C@@H](c2ccccc2)C1=O` (relative stereo) [Example 4b, trans-3-Butyl-3-ethyl-5-phenyl-2,3-dihydro-benzothiepin-(5H)4-one] was run?
A: The inhibition at 100 µM was 9%.

Q: For `CCCC[C@]1(CC)CS(=O)(=O)c2ccccc2[C@H](c2ccccc2)C1=O` (relative stereo) [Example 5a, cis-3-Butyl-3-ethyl-5-phenyl-2,3-dihydrobenzothiepin-(5H) 4-one-1,1-dioxide], which inhibition at 100 µM is on record?
A: Its inhibition at 100 µM is 34%.

Same assay, conditions: H14 cells, Table 5; read-out: IC50 uM (In vitro Taurocholate Cell Uptake)

Q: With `O=S1(=O)CC2(CCCCC2)[C@@H](O)[C@H](c2ccccc2)c2ccccc21` (relative stereo) [Example 59, trans-4-Hydroxy-5-phenyl-2,3,4,5-tetrahydro spiro(benzothiepine-3,1′-cyclohexane)-1,1-dioxide] as the compound, how does the IC50 read?
A: Its IC50 is 70 µM.

Same assay, conditions: Human TC IC50

Q: `CCCCC1(CC)CS(=O)(=O)c2ccc(N(C)C)cc2C(c2ccccc2)C1O` (single isomer, unassigned) [Example 1259] was tested. Which IC50 did it give?
A: The IC50 was 16.5 µM.

Q: Which IC50 does the source give for `CCCCC1(CC)CS(=O)(=O)c2ccc(N(C)C)cc2C(c2ccccc2)C1O` (single isomer, unassigned) [Example 1300] here?
A: The IC50 was 1 µM.

Same assay, conditions: read-out: Human TC IC50

Q: For `CCCCC1(CC)CS(=O)(=O)c2ccc(NC(=O)OCc3ccccc3)cc2C(c2ccc(OC)cc2)C1O` (single isomer, unassigned) [Example 115], which IC50 is on record?
A: The IC50 was 8 µM.

Q: With `CCCCC1(CC)CS(=O)(=O)c2ccc(NC(=O)OCc3ccccc3)cc2C(c2ccc(OC)cc2)C1O` (single isomer, unassigned) [Example 116] as the compound, how does the IC50 read?
A: The IC50 was 0.3 µM.

Q: With `CCCCC1(CC)CS(=O)(=O)c2ccc(N)cc2C(c2ccccc2)C1O` (single isomer, unassigned) [Example 121] as the compound, how does the IC50 read?
A: Its IC50 is 0.068 µM.

Q: For `CCCCC1(CC)CS(=O)(=O)c2ccc(N)cc2C(c2ccccc2)C1O` (single isomer, unassigned) [Example 122], which IC50 is on record?
A: Its IC50 is 1.07 µM.

Q: Which IC50 does the source give for `CCCCC1(CC)CS(=O)(=O)c2ccc(N)cc2C(c2ccc(F)cc2)C1O` (single isomer, unassigned) [Example 127] here?
A: The IC50 was 0.55 µM.

Q: With `CCCCC1(CC)CS(=O)(=O)c2ccc(N)cc2C(c2ccc(F)cc2)C1O` (single isomer, unassigned) [Example 129] as the compound, how does the IC50 read?
A: Its IC50 is 0.035 µM.

Q: With `CCCCC1(CC)CS(=O)(=O)c2ccc(SC)cc2C(c2cccc(OC)c2)C1O` (single isomer, unassigned) [Example 142] as the compound, how does the IC50 read?
A: The IC50 was 0.5 µM.

Q: For `CCCCC1(CC)CS(=O)(=O)c2ccc(SC)cc2C(c2cccc(OC)c2)C1O` (single isomer, unassigned) [Example 143], which IC50 is on record?
A: The IC50 was 0.03 µM.

Q: Which IC50 does the source give for `CCCCC1(CC)CS(=O)(=O)c2ccc(OC)cc2C(c2cccc(OC)c2)C1O` (single isomer, unassigned) [Example 262] here?
A: The IC50 was 0.07 µM.

Q: Which IC50 does the source give for `CCCCC1(CC)CS(=O)(=O)c2ccc(OC)cc2C(c2cccc(OC)c2)C1O` (single isomer, unassigned) [Example 263] here?
A: Its IC50 is 0.7 µM.

Q: How did the IC50 turn out when `CCCCC1(CC)CS(=O)(=O)c2ccc(OC)cc2C(c2cccc(C(F)(F)F)c2)C1O` (single isomer, unassigned) [Example 264] was run?
A: The IC50 was 0.2 µM.

Q: `CCCCC1(CC)CS(=O)(=O)c2ccc(OC)cc2C(c2cccc(C(F)(F)F)c2)C1O` (single isomer, unassigned) [Example 265] was tested. Which IC50 did it give?
A: The IC50 was 2 µM.

Q: How did the IC50 turn out when `CCCCC1(CC)CS(=O)(=O)c2ccc(Br)cc2C(c2cccc(OC)c2)C1O` (single isomer, unassigned) [Example 271] was run?
A: Its IC50 is 0.07 µM.

Q: Which IC50 does the source give for `CCCCC1(CC)CS(=O)(=O)c2ccc(Br)cc2C(c2cccc(OC)c2)C1O` (single isomer, unassigned) [Example 272] here?
A: Its IC50 is 0.7 µM.

Q: How did the IC50 turn out when `CCCCC1(CC)CS(=O)(=O)c2ccc(F)cc2C(c2ccc(F)cc2)C1O` (single isomer, unassigned) [Example 273] was run?
A: The IC50 was 1.9 µM.

Q: `CCCCC1(CC)CS(=O)(=O)c2ccc(F)cc2C(c2ccc(F)cc2)C1O` (single isomer, unassigned) [Example 274] was tested. Which IC50 did it give?
A: The IC50 was 0.18 µM.

Q: For `CCCCC1(CC)CS(=O)(=O)c2ccc(C)cc2C(c2ccc(F)cc2)C1O` (single isomer, unassigned) [Example 282], which IC50 is on record?
A: The IC50 was 0.021 µM.

Q: `CCCCC1(CC)CS(=O)(=O)c2ccc(C)cc2C(c2ccc(F)cc2)C1O` (single isomer, unassigned) [Example 283] was tested. Which IC50 did it give?
A: Its IC50 is 0.35 µM.

Q: Which IC50 does the source give for `CCCCC1(CCCC)CS(=O)(=O)c2c(cccc2N(C)C)C(c2ccsc2)C1O` (single isomer, unassigned) [Example 1067] here?
A: The IC50 was 0.004 µM.

Q: Which IC50 does the source give for `CCCCC1(CC)CS(=O)(=O)c2ccc(N(C)C)cc2C(c2ccc(O)cc2)C1O` (single isomer, unassigned) [Example 1078] here?
A: Its IC50 is 0.0045 µM.

Q: How did the IC50 turn out when `CCCCC1(CC)CS(=O)(=O)c2ccc(N(C)C)cc2C(c2cccc(C)c2)C1O` (single isomer, unassigned) [Example 1116] was run?
A: Its IC50 is 0.0093 µM.

Q: For `CCCCC1(CCCC)CS(=O)(=O)c2ccc(N(C)C)cc2C(c2ccc(OC)c(F)c2)C1O` (single isomer, unassigned) [Example 1143], which IC50 is on record?
A: The IC50 was 0.027 µM.

Q: With `CCCCC1(CC)CS(=O)(=O)c2ccc(N(C)C)cc2C(c2ccc(OC)c(F)c2)C1O` (single isomer, unassigned) [Example 1151] as the compound, how does the IC50 read?
A: Its IC50 is 0.031 µM.

Q: `CCCCC1(CCCC)CS(=O)(=O)c2ccc(N(C)C)cc2C(c2ccccc2)C1O` (single isomer, unassigned) [Example 1200] was tested. Which IC50 did it give?
A: The IC50 was 6.1 µM.

Q: How did the IC50 turn out when `CCCCC1(CCCC)CS(=O)(=O)c2c(cccc2N2CCOCC2)C(c2ccc(OC)cc2)C1O` (single isomer, unassigned) [Example 1212] was run?
A: Its IC50 is 0.39 µM.

Q: Which IC50 does the source give for `CCCCC1(CC)CS(=O)(=O)c2ccc(N(C)C)cc2C(c2ccc(OC)c(F)c2)C1O` (single isomer, unassigned) [Example 1213] here?
A: The IC50 was 1.7 µM.

Q: With `CCCCC1(CC)CS(=O)(=O)c2ccc(N(C)C)cc2C(c2cccc(C)c2)C1O` (single isomer, unassigned) [Example 1225] as the compound, how does the IC50 read?
A: Its IC50 is 0.12 µM.

Q: With `CCCCC1(CCCC)CS(=O)(=O)c2c(cccc2N(C)C)C(c2ccsc2)C1O` (single isomer, unassigned) [Example 1232] as the compound, how does the IC50 read?
A: The IC50 was 1.2 µM.

Q: How did the IC50 turn out when `CCCCC1(CC)CS(=O)(=O)c2ccc(N(C)C)cc2C(c2ccc(O)cc2)C1O` (single isomer, unassigned) [Example 1287] was run?
A: Its IC50 is 0.071 µM.

Q: `CCCCC1(CCCC)CS(=O)(=O)c2c(cccc2N2CCOCC2)C(c2ccc(OC)cc2)C1O` (single isomer, unassigned) [Example 1307] was tested. Which IC50 did it give?
A: The IC50 was 3.1 µM.

Q: With `CCCCC1(CC)CS(=O)(=O)c2ccc(NO)cc2C(c2ccccc2)C1O` (single isomer, unassigned) [Example 1311] as the compound, how does the IC50 read?
A: The IC50 was 3.27 µM.
